Blank lines part the entries; values can stand above or below the compound they belong to.
Tests used:
[1] = Blood and plasma stability; assay type: in vitro ADME; conditions: rat blood and plasma, over 4 h at 37 °C
[2] = in vivo; conditions: male, Sprague Dawley, rat, plasma
[3] = Tolerability observed in rat PK studies; assay type: in vivo; conditions: rats; for hemolysis: dosed iv, most likely arising from the vehicle; for signs of toxicity: orally or ip at doses up to ∼20 mg/kg
[4] = Oral exposure in mice; assay type: in vivo, mouse; conditions: single oral dose 50 mg/kg, suspension in PEG400, after ∼5 h
[5] = rat dosed intravenously
[6] = Chemical stability; assay type: physicochemical
[7] = Metabolic stability in human liver microsomes; assay type: in vitro ADME
[8] = Metabolic stability in mouse liver microsomes; assay type: in vitro ADME; conditions: for metabolic stability (in words): incubated with mouse liver microsomes
[9] = Metabolic stability in rat liver microsomes; assay type: in vitro ADME

SMILES: CCOC(=O)C1=C(C)N/C(=C/c2cc(C)n(-c3ccccc3C(F)(F)F)c2C)C1=O [Compound 8a, Ethyl (5E)-5-[[2,5-dimethyl-1-[2-(trifluoromethyl)phenyl]pyrrol-3-yl]methylene]-2-methyl-4-oxo-1H-pyrrole-3-carboxylate]
- hydrolyzed to the acid 10c [1]: ~25%
- half-life [2]: ≥ 8 h
- hemolysis [3]: slight degree of hemolysis
- signs of toxicity [3]: No sign of toxicity
- plasma levels [4]: < 10 nM
- glutathione conjugation adducts in urine [5]: no adducts resulting from conjugation with glutathione were detected
- chemical stability (in words) [6]: fairly resistant to chemical hydrolysis
- metabolites detected [7]: none

SMILES: CCOC(=O)C1=C(C)N/C(=C/c2cc(C)n(-c3ccc(CN(C)C)cc3)c2C)C1=O [Compound 8aa]
- metabolic stability (in words) [8]: slightly more stable

SMILES: CCOC(=O)C1=C(C)N/C(=C/c2cc(C)n(-c3ccc(C(F)(F)F)cc3)c2C)C1=O [Compound 8b, Ethyl (5E)-5-[[2,5-Dimethyl-1-[4-(trifluoromethyl)phenyl]pyrrol-3-yl]methylene]-2-methyl-4-oxo-1H-pyrrole-3-carboxylate]
- half-life [2]: ≥ 8 h
- hemolysis [3]: slight degree of hemolysis
- signs of toxicity [3]: No sign of toxicity
- metabolites detected ([8]; mouse liver microsomes (Table 6)): none
- half-life at 1 μM [7]: 0.583 h
- metabolites detected [7]: none
- metabolites detected [9]: none

SMILES: CCOC(=O)C1=C(C)N/C(=C/c2cc(C)n(-c3ccc(N4CCOCC4)cc3)c2C)C1=O [Compound 8u]
- metabolic stability (in words) [8]: slightly more stable

Second part, the compound after the results:

- metabolic stability (in words) [8]: even lower metabolic stability
SMILES: CCOC(=O)C1=C(C)N/C(=C/c2ccn(-c3ccccc3C(F)(F)F)c2)C1=O [Compound 9a]

- metabolic stability (in words) [8]: even lower metabolic stability
SMILES: CCOC(=O)C1=C(C)N/C(=C/c2ccn(-c3ccc(C(F)(F)F)cc3)c2)C1=O [Compound 9b]

- metabolic stability (in words) [8]: even lower metabolic stability
SMILES: CCOC(=O)C1=C(C)N/C(=C/c2cc(CC)n(-c3ccccc3C(F)(F)F)c2CC)C1=O [Compound 9c, Ethyl (5E)-5-[[2,5-Diethyl-1-[2-(trifluoromethyl)phenyl]pyrrol-3-yl]methylene]-2-methyl-4-oxo-1H-pyrrole-3-carboxylate]

- metabolic stability (in words) [8]: slightly more stable
SMILES: CC1=CC(=O)/C(=C\c2cc(C)n(-c3ccccc3C(F)(F)F)c2C)N1 [Compound 10d]

- chemical stability (in words) [6]: less stable chemically
SMILES: CCOC(=O)C1=C(C)NC(Cc2cc(C)n(-c3ccccc3C(F)(F)F)c2C)C1=O (stereo not shown) [Compound 11b]
